According to ChEMBL document CHEMBL1201862, “PubChem BioAssay data set” (2004):
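Briefly, cells in 96-well plates were exposed to five compound concentrations for 48 h, and endpoints were estimated by linear interpolation. Here, GI50 denotes the concentration required for 50% inhibition of growth.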 Activity calls are given as the source filed them. Cut-off read from the data, not from the text of the source: active = GI50 up to about 1.1 µM and inactive = higher.

Assays:
Experiment in all cases: NCI anticancer screen, dose series, 48 h
A498 = system: A498
A549 = system: A549
COLO 205 = system: COLO 205
HCC 2998 = system: HCC 2998
HCT-116 = system: HCT-116
HCT-15 = system: HCT-15
HOP-62 = system: HOP-62
HT-29 = system: HT-29
MOLT-4 = system: MOLT-4
OVCAR-3 = system: OVCAR-3
OVCAR-4 = system: OVCAR-4
OVCAR-5 = system: OVCAR-5
RXF 393 = system: RXF 393
SF-539 = system: SF-539
SN12C = system: SN12C
SNB-19 = system: SNB-19
SNB-75 = system: SNB-75
SR = system: SR

| Structure (SMILES) | GI50 (A498) | GI50 (A549) | GI50 (COLO 205) | GI50 (HCC 2998) | GI50 (HCT-116) | GI50 (HCT-15) | GI50 (HOP-62) | GI50 (HT-29) | GI50 (MOLT-4) | GI50 (OVCAR-3) | GI50 (OVCAR-4) | GI50 (OVCAR-5) | GI50 (RXF 393) | GI50 (SF-539) | GI50 (SN12C) | GI50 (SNB-19) | GI50 (SNB-75) | GI50 (SR) |
| --- | --- | --- | --- | --- | --- | --- | --- | --- | --- | --- | --- | --- | --- | --- | --- | --- | --- | --- |
| N#CC[N+]1(Cc2ccccn2)CCCC1.O=S(=O)([O-])c1ccccc1 | > 100 µM (inactive) | > 100 µM (inactive) | > 100 µM (inactive) | > 100 µM (inactive) | > 100 µM (inactive) | > 100 µM | > 100 µM (inactive) | > 100 µM (inactive) | 7.01 µM (inactive) | > 100 µM (inactive) | > 100 µM (inactive) | > 100 µM (inactive) | > 100 µM (inactive) | > 100 µM (inactive) | > 100 µM (inactive) | > 100 µM (inactive) | 58.9 µM (inactive) | – |
| CSC1=C(C(=O)Nc2ccc(C)cc2)C(N)=NC1=O | – | – | > 100 µM (inactive) | > 100 µM (inactive) | > 100 µM (inactive) | > 100 µM | – | > 100 µM (inactive) | > 100 µM (inactive) | – | > 100 µM (inactive) | – | > 100 µM (inactive) | > 100 µM (inactive) | – | > 100 µM (inactive) | > 100 µM (inactive) | 81.5 µM (inactive) |
| O=C(c1ccccc1)c1ccc(N2C(=O)/C(=C/c3ccccc3S)N=C2c2ccccc2)c(N2C(=O)/C(=C/c3ccccc3S)N=C2c2ccccc2)c1 | 60.7 µM (inactive) | 33.2 µM (inactive) | 60.1 µM (inactive) | 35.7 µM (inactive) | 66.4 µM (inactive) | 53.3 µM | 40.7 µM (inactive) | 86.5 µM (inactive) | 21.4 µM (inactive) | 20.1 µM (inactive) | 38.3 µM (inactive) | > 100 µM (inactive) | – | 21.3 µM (inactive) | > 100 µM (inactive) | 41.5 µM (inactive) | 21.2 µM (inactive) | 30.5 µM (inactive) |
| O=c1c2cc(S(=O)(=O)Nc3ccccc3Cl)ccc2ncn1NS(=O)(=O)c1ccc(Br)cc1 | – | > 37.5 µM (inactive) | > 37.5 µM (inactive) | > 37.5 µM (inactive) | > 37.5 µM (inactive) | > 37.5 µM | > 37.5 µM (inactive) | > 37.5 µM (inactive) | > 37.5 µM (inactive) | > 37.5 µM (inactive) | > 37.5 µM (inactive) | > 37.5 µM (inactive) | – | > 37.5 µM (inactive) | > 37.5 µM (inactive) | > 37.5 µM (inactive) | > 37.5 µM (inactive) | > 37.5 µM (inactive) |
| O=[N+]([O-])c1cccc([N+](=O)[O-])c1S(=O)(=O)c1ccccc1 | 18.8 µM (inactive) | 19.8 µM (inactive) | 6.18 µM (inactive) | – | 1.89 µM (inactive) | 1.92 µM | 19.9 µM (inactive) | 7.67 µM (inactive) | 3.38 µM (inactive) | 2.49 µM (inactive) | – | 3.66 µM (inactive) | – | 15.8 µM (inactive) | 3.83 µM (inactive) | 18.3 µM (inactive) | – | 1.63 µM (inactive) |
| Cc1ncc(CO)c(CN)c1O | > 100 µM (inactive) | > 100 µM (inactive) | > 100 µM (inactive) | > 100 µM (inactive) | > 100 µM (inactive) | > 100 µM | > 100 µM (inactive) | > 100 µM (inactive) | > 100 µM (inactive) | > 100 µM (inactive) | > 100 µM (inactive) | > 100 µM (inactive) | > 100 µM (inactive) | > 100 µM (inactive) | > 100 µM (inactive) | > 100 µM (inactive) | – | – |
| CSc1nnc(SC)nn1 | > 100 µM (inactive) | 20.9 µM (inactive) | 18.7 µM (inactive) | – | 11 µM (inactive) | 19.2 µM | 15.3 µM (inactive) | 18.9 µM (inactive) | 0.438 µM (active) | 16.2 µM (inactive) | 18.5 µM (inactive) | 18.1 µM (inactive) | 16.7 µM (inactive) | 18.2 µM (inactive) | 21.1 µM (inactive) | 20.7 µM (inactive) | 17.4 µM (inactive) | – |
| O=C(O)c1ccc(C(O)(c2ccccc2)c2ccccc2)cc1 | – | > 100 µM (inactive) | > 100 µM (inactive) | – | > 100 µM (inactive) | > 100 µM | > 100 µM (inactive) | – | > 100 µM (inactive) | > 100 µM (inactive) | > 100 µM (inactive) | > 100 µM (inactive) | – | – | > 100 µM (inactive) | > 100 µM (inactive) | – | > 100 µM (inactive) |
| CCCCCCCCCCCCNC(C)=O | 20 µM (inactive) | 27 µM (inactive) | 17.7 µM (inactive) | 17.5 µM (inactive) | 17.9 µM (inactive) | 16.9 µM | 14.3 µM (inactive) | 19.5 µM (inactive) | – | 17.7 µM (inactive) | – | – | 18.9 µM (inactive) | 16.3 µM (inactive) | 16.6 µM (inactive) | 16.3 µM (inactive) | 23.6 µM (inactive) | – |
